PubChem BioAssay AID2060360 (Molecular Pharmacology Branch, DTP, NCI, 2025)

Test system: 282377-053-R-J1-PDC tumor spheroids, viability
Assay: Anticancer human tumor 282377-053-R-J1-PDC patient-derived colon adenocarcinoma cell line growth inhibition [TAK]
Settings: spheroids with HUVEC and MSC; for IC50: curve of first compound; for viability, T/C: stronger effect = lower value
Method in brief: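 Drug combinations, each paired with TAK-243 or ipatasertib, were tested on multi-cell spheroids of 60% malignant cells, 25% HUVEC and 15% hMSC. Top concentrations were at or near the clinical Cmax (10 microM if undetermined), decreasing by half-log; viability is given as % test/control.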

[1] = second compound 0.3 µM, first compound 0.0316 µM
[2] = second compound 0.3 µM, first compound 0.1 µM
[3] = second compound 0.3 µM, first compound 0.316 µM
[4] = second compound 0.3 µM, first compound 1 µM
[5] = second compound 0.949 µM, first compound 0.0316 µM
[6] = second compound 0.949 µM, first compound 0.1 µM
[7] = second compound 0.949 µM, first compound 0.316 µM
[8] = second compound 0.949 µM, first compound 1 µM
[9] = second compound 3 µM, first compound 0.0316 µM
[10] = second compound 3 µM, first compound 0.1 µM
[11] = second compound 3 µM, first compound 0.316 µM
[12] = second compound 3 µM, first compound 1 µM
[13] = second compound 9.49 µM, first compound 0.0316 µM
[14] = second compound 9.49 µM, first compound 0.1 µM
[15] = second compound 9.49 µM, first compound 0.316 µM
[16] = second compound 9.49 µM, first compound 1 µM
[17] = second compound 30 µM, first compound 0.0316 µM
[18] = second compound 30 µM, first compound 0.1 µM
[19] = second compound 30 µM, first compound 0.316 µM
[20] = second compound 30 µM, first compound 1 µM
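Also: spheroids exposed to drugs for seven days before readout.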

SMILES | IC50 (second compound 0.3 µM) [nM] | IC50 (second compound 0.949 µM) [nM] | IC50 (second compound 3 µM) [nM] | IC50 (second compound 9.49 µM) [nM] | IC50 (second compound 30 µM) [nM] | viability, T/C [1] [%] | viability, T/C [2] [%] | viability, T/C [3] [%] | viability, T/C [4] [%] | viability, T/C [5] [%] | viability, T/C [6] [%] | viability, T/C [7] [%] | viability, T/C [8] [%] | viability, T/C [9] [%] | viability, T/C [10] [%] | viability, T/C [11] [%] | viability, T/C [12] [%] | viability, T/C [13] [%] | viability, T/C [14] [%] | viability, T/C [15] [%] | further results
COc1c(OCCCN2CCOCC2)ccc2c3n(c(=NC(=O)c4cnc(N)nc4)nc12)CCN3 + CC(C)NCC(C(=O)N1CCN(c2ncnc3c2C(C)CC3O)CC1)c1ccc(Cl)cc1 | > 1000 | 674 | 489 | 182 | 32.3 | 91.8 | 91.1 | 87.9 | 64.3 | 87.6 | 81.3 | 82.7 | 33.2 | 80.5 | 78.4 | 73.4 | 13.6 | 73.2 | 66.8 | 35.4 | viability, T/C (second compound 0.3 µM, first compound 0.00316 µM): 95%; viability, T/C (second compound 0.3 µM, first compound 0.01 µM): 96%; viability, T/C (second compound 0.949 µM, first compound 0.00316 µM): 94.9%; viability, T/C (second compound 0.949 µM, first compound 0.01 µM): 87.7%; viability, T/C (second compound 3 µM, first compound 0.00316 µM): 86.1%; viability, T/C (second compound 3 µM, first compound 0.01 µM): 88.3%; viability, T/C (second compound 9.49 µM, first compound 0.00316 µM): 82.3%; viability, T/C (second compound 9.49 µM, first compound 0.01 µM): 79.1%; viability, T/C [16]: 11.4%; viability, T/C (second compound 30 µM, first compound 0.00316 µM): 66.4%; viability, T/C (second compound 30 µM, first compound 0.01 µM): 65.8%; viability, T/C [17]: 48%; viability, T/C [18]: 29.7%; viability, T/C [19]: 8.22%; viability, T/C [20]: 4.24%
Cc1nc(NC(=O)N2CCCC2C(N)=O)sc1-c1ccnc(C(C)(C)C(F)(F)F)c1 (stereo not given) + CC(C)NCC(C(=O)N1CCN(c2ncnc3c2C(C)CC3O)CC1)c1ccc(Cl)cc1 | > 10000 | > 10000 | > 10000 | > 10000 | 5510 | 99.7 | 91.4 | 91.7 | 89.8 | 87.2 | 91.5 | 84 | 81 | 83.5 | 83.9 | 80 | 77.3 | 81.7 | 81 | 76.1 | viability, T/C (second compound 0.3 µM, first compound 3.16 µM): 79.8%; viability, T/C (second compound 0.3 µM, first compound 10 µM): 70.4%; viability, T/C (second compound 0.949 µM, first compound 3.16 µM): 79.1%; viability, T/C (second compound 0.949 µM, first compound 10 µM): 81.3%; viability, T/C (second compound 3 µM, first compound 3.16 µM): 76.3%; viability, T/C (second compound 3 µM, first compound 10 µM): 77.3%; viability, T/C [16]: 75.8%; viability, T/C (second compound 9.49 µM, first compound 3.16 µM): 69.6%; viability, T/C (second compound 9.49 µM, first compound 10 µM): 64%; viability, T/C [17]: 71.7%; viability, T/C [18]: 69.8%; viability, T/C [19]: 66.4%; viability, T/C [20]: 58%; viability, T/C (second compound 30 µM, first compound 3.16 µM): 56.1%; viability, T/C (second compound 30 µM, first compound 10 µM): 45.1%
